Tested on: MV-4-11 cells
Experiment: Gene expression microarray analysis (Affymetrix PrimeView) and GSEA
Format: cell-based, human
Parameters: RFU PODN (11730768_x_at) / Fold change /veh PODN (11730768_x_at) / RFU LINC00158 (11744669_a_at) / Fold change /veh LINC00158 (11744669_a_at) / RFU DUSP10 (11751237_a_at) / Fold change /veh DUSP10 (11751237_a_at) / RFU ID3 (11757404_x_at) / Fold change /veh ID3 (11757404_x_at) / RFU PLEKHG5 (11737974_s_at) / Fold change /veh PLEKHG5 (11737974_s_at) / RFU LRRC4B (11730491_at) / Fold change /veh LRRC4B (11730491_at) / RFU GIMAP4 (11747438_a_at) / Fold change /veh GIMAP4 (11747438_a_at) / RFU KRT8 (11758183_x_at) / Fold change /veh KRT8 (11758183_x_at) / RFU CNN1 (11734310_a_at) / Fold change /veh CNN1 (11734310_a_at) / RFU VPS37D (11726825_at) / Fold change /veh VPS37D (11726825_at) / RFU C10orf10 (11716522_x_at) / Fold change /veh C10orf10 (11716522_x_at) / RFU KIR2DL2 /// KIR2DL4 /// KIR2DL5A /// KIR2DL5B /// KIR2DS1 /// KIR2DS2 /// KIR2DS3 /// KIR2DS4 /// KIR3DL3 /// KIR3DL3 /// KIR3DS1 (11738374_at) / Fold change /veh KIR2DL2 /// KIR2DL4 /// KIR2DL5A /// KIR2DL5B /// KIR2DS1 /// KIR2DS2 /// KIR2DS3 /// KIR2DS4 /// KIR3DL3 /// KIR3DL3 /// KIR3DS1 (11738374_at) / RFU C1QL1 (11718748_at) / Fold change /veh C1QL1 (11718748_at) / RFU TMPRSS4 (11747572_a_at) / Fold change /veh TMPRSS4 (11747572_a_at) / RFU HAMP (11756126_x_at) / Fold change /veh HAMP (11756126_x_at) / RFU RNFT2 (11725882_a_at) / Fold change /veh RNFT2 (11725882_a_at) / RFU NR4A2 (11747474_a_at) / Fold change /veh NR4A2 (11747474_a_at) / RFU ABCC12 (11746883_a_at) / Fold change /veh ABCC12 (11746883_a_at) / RFU TMEM136 (11760407_x_at) / Fold change /veh TMEM136 (11760407_x_at) / RFU CLDN22 /// WWC2 (11732394_at) / Fold change /veh CLDN22 /// WWC2 (11732394_at) / RFU HLA-DPB1 (11760878_x_at) / Fold change /veh HLA-DPB1 (11760878_x_at) / RFU SPINT1 (11716480_a_at) / Fold change /veh SPINT1 (11716480_a_at) / RFU GAP43 (11754022_s_at) / Fold change /veh GAP43 (11754022_s_at) / RFU A4GNT (11735810_at) / Fold change /veh A4GNT (11735810_at) / RFU PRB3 (11715151_x_at) / Fold change /veh PRB3 (11715151_x_at) / RFU TUBB4B (11761932_at) / Fold change /veh TUBB4B (11761932_at) / RFU CAPN14 (11732068_a_at) / Fold change /veh CAPN14 (11732068_a_at) / RFU TMCC2 (11721928_a_at) / Fold change /veh TMCC2 (11721928_a_at) / RFU IRGQ (11745062_a_at) / Fold change /veh IRGQ (11745062_a_at) / RFU FAM174B (11720279_a_at) / Fold change /veh FAM174B (11720279_a_at) / RFU TMPRSS4 (11748680_a_at) / Fold change /veh TMPRSS4 (11748680_a_at) / RFU FAM212B (11763350_a_at) / Fold change /veh FAM212B (11763350_a_at) / RFU PLEKHG5 (11743358_a_at) / Fold change /veh PLEKHG5 (11743358_a_at) / RFU ZSCAN30 (11745921_a_at) / Fold change /veh ZSCAN30 (11745921_a_at) / RFU CMKLR1 (11741424_a_at) / Fold change /veh CMKLR1 (11741424_a_at) / RFU LOC101060620 /// MAPK8IP1 (11723275_at) / Fold change /veh LOC101060620 /// MAPK8IP1 (11723275_at) / RFU SPTSSB (11747773_x_at) / Fold change /veh SPTSSB (11747773_x_at) / RFU PRSS12 (11739890_at) / Fold change /veh PRSS12 (11739890_at) / RFU BIN1 (11741810_x_at) / Fold change /veh BIN1 (11741810_x_at) / RFU WNT11 (11732464_a_at) / Fold change /veh WNT11 (11732464_a_at) / RFU C10orf10 (11716521_a_at) / Fold change /veh C10orf10 (11716521_a_at) / RFU C5orf56 (11738089_at) / Fold change /veh C5orf56 (11738089_at) / RFU CYB561 (11721691_x_at) / Fold change /veh CYB561 (11721691_x_at) / RFU ANKRD19P (11752326_a_at) / Fold change /veh ANKRD19P (11752326_a_at) / RFU OR2T12 /// OR2T33 /// OR2T8 (11738714_s_at) / Fold change /veh OR2T12 /// OR2T33 /// OR2T8 (11738714_s_at) / RFU VCAN (11748164_a_at) / Fold change /veh VCAN (11748164_a_at) / RFU JSRP1 (11732532_at) / Fold change /veh JSRP1 (11732532_at) / RFU KRTAP10-11 (11738290_x_at) / Fold change /veh KRTAP10-11 (11738290_x_at) / RFU MYO3A (11730013_a_at) / Fold change /veh MYO3A (11730013_a_at) / RFU EBF3 (11725865_a_at) / Fold change /veh EBF3 (11725865_a_at) / RFU CAMK2N1 (11719241_x_at) / Fold change /veh CAMK2N1 (11719241_x_at) / RFU C5orf56 (11738088_a_at) / Fold change /veh C5orf56 (11738088_a_at) / RFU OLFML3 (11715873_a_at) / Fold change /veh OLFML3 (11715873_a_at) / RFU LOC100653217 /// NTM (11731650_a_at) / Fold change /veh LOC100653217 /// NTM (11731650_a_at) / RFU MAPK11 (11762145_a_at) / Fold change /veh MAPK11 (11762145_a_at) / RFU FIZ1 (11724087_x_at) / Fold change /veh FIZ1 (11724087_x_at) / RFU OASL (11726364_x_at) / Fold change /veh OASL (11726364_x_at) / RFU SOX15 (11748057_x_at) / Fold change /veh SOX15 (11748057_x_at) / RFU CD79A (11719716_a_at) / Fold change /veh CD79A (11719716_a_at) / RFU HIST1H1D (11736915_at) / Fold change /veh HIST1H1D (11736915_at) / RFU CASKIN2 (11723855_a_at) / Fold change /veh CASKIN2 (11723855_a_at) / RFU LOC730098 (11760151_x_at) / Fold change /veh LOC730098 (11760151_x_at) / RFU OR4N2 (11742367_at) / Fold change /veh OR4N2 (11742367_at) / RFU PRRT2 (11749266_a_at) / Fold change /veh PRRT2 (11749266_a_at) / RFU SNX32 (11753110_a_at) / Fold change /veh SNX32 (11753110_a_at) / RFU CDHR5 (11726645_a_at) / Fold change /veh CDHR5 (11726645_a_at) / RFU RCAN1 (11760418_a_at) / Fold change /veh RCAN1 (11760418_a_at) / RFU FAM167A (11723789_a_at) / Fold change /veh FAM167A (11723789_a_at) / RFU FAM26E (11764081_at) / Fold change /veh FAM26E (11764081_at) / RFU ISYNA1 (11749810_s_at) / Fold change /veh ISYNA1 (11749810_s_at) / RFU ACY1 (11761880_at) / Fold change /veh ACY1 (11761880_at) / RFU 11764098_at / Fold change /veh 11764098_at / RFU SAMD14 (11745864_x_at) / Fold change /veh SAMD14 (11745864_x_at) / RFU NPB (11741838_a_at) / Fold change /veh NPB (11741838_a_at) / RFU TMPRSS6 (11731388_a_at) / Fold change /veh TMPRSS6 (11731388_a_at) / RFU KRTAP10-2 (11738614_at) / Fold change /veh KRTAP10-2 (11738614_at) / RFU ARHGAP8 /// PRR5-ARHGAP8 (11727945_x_at) / Fold change /veh ARHGAP8 /// PRR5-ARHGAP8 (11727945_x_at) / RFU KRTAP5-7 /// NADSYN1 (11734609_at) / Fold change /veh KRTAP5-7 /// NADSYN1 (11734609_at) / RFU RASL12 (11751679_a_at) / Fold change /veh RASL12 (11751679_a_at) / RFU CDKN2B (11736163_a_at) / Fold change /veh CDKN2B (11736163_a_at) / RFU PRF1 (11729649_at) / Fold change /veh PRF1 (11729649_at) / RFU, ZNF638 /// ZNF638-IT1 / Fold change vs veh, ZNF638 /// ZNF638-IT1 / RFU, PANK3 / Fold change vs veh, PANK3 / RFU, SH3YL1 / Fold change vs veh, SH3YL1 / RFU, ZEB2 / Fold change vs veh, ZEB2 / RFU, NRIP1 / Fold change vs veh, NRIP1 / RFU, PTTG1IP / Fold change vs veh, PTTG1IP / RFU, CAPN2 / Fold change vs veh, CAPN2 / RFU, MED14 / Fold change vs veh, MED14 / RFU, SNORA58 / Fold change vs veh, SNORA58 / RFU, C1orf63 / Fold change vs veh, C1orf63 / RFU, LRRFIP1 / Fold change vs veh, LRRFIP1 / RFU, NDUFAF7 / Fold change vs veh, NDUFAF7 / RFU, SLC12A2 / Fold change vs veh, SLC12A2 / RFU, IBTK / Fold change vs veh, IBTK / RFU, ESF1 / Fold change vs veh, ESF1 / Fold change vs veh, TMEM50B / RFU, TAOK1 / Fold change vs veh, TAOK1 / RFU, ACBD3 / Fold change vs veh, ACBD3 / RFU, TMA16 / Fold change vs veh, TMA16 / RFU, RWDD3 / Fold change vs veh, RWDD3 / RFU, BCAT1 / Fold change vs veh, BCAT1 / RFU, EDEM3 / Fold change vs veh, EDEM3 / RFU, TMEM33 / Fold change vs veh, TMEM33 / RFU, WDR75 / Fold change vs veh, WDR75 / RFU, AHCTF1 / Fold change vs veh, AHCTF1 / RFU, TFRC / Fold change vs veh, TFRC / RFU, ZDHHC17 / Fold change vs veh, ZDHHC17 / RFU, NOM1 / Fold change vs veh, NOM1 / RFU, ARL8B / Fold change vs veh, ARL8B / RFU, ZBTB11 / Fold change vs veh, ZBTB11 / RFU, TAMM41 / Fold change vs veh, TAMM41 / RFU, KIAA1704 /// LOC100996395 / Fold change vs veh, KIAA1704 /// LOC100996395 / RFU, ING1 / Fold change vs veh, ING1 / RFU, TRMT61B / Fold change vs veh, TRMT61B / RFU, FUBP3 / Fold change vs veh, FUBP3 / RFU, TP53 / Fold change vs veh, TP53 / RFU, TNKS2 / Fold change vs veh, TNKS2 / RFU, ZFP14 / Fold change vs veh, ZFP14 / RFU, ACTR2 / Fold change vs veh, ACTR2 / RFU, PPP3R1 / Fold change vs veh, PPP3R1 / RFU, PIK3R1 / Fold change vs veh, PIK3R1 / RFU, HNRNPA1 / Fold change vs veh, HNRNPA1 / RFU, RNF170 / Fold change vs veh, RNF170 / RFU, ZNF28 / Fold change vs veh, ZNF28 / RFU, RNGTT / Fold change vs veh, RNGTT / RFU, OGT / Fold change vs veh, OGT / RFU, BRD1 / Fold change vs veh, BRD1 / RFU, MARS / Fold change vs veh, MARS / RFU, ZNF655 / Fold change vs veh, ZNF655 / RFU, FAHD1 / Fold change vs veh, FAHD1 / RFU, BDP1 / Fold change vs veh, BDP1 / RFU, LRRCC1 / Fold change vs veh, LRRCC1 / RFU, ARID1A / Fold change vs veh, ARID1A / RFU, ZNF146 / Fold change vs veh, ZNF146 / RFU, ZNF330 / Fold change vs veh, ZNF330 / RFU, GPN3 / Fold change vs veh, GPN3 / RFU, C9orf123 / Fold change vs veh, C9orf123 / RFU, N4BP2L2 / Fold change vs veh, N4BP2L2 / RFU, ARFIP1 / Fold change vs veh, ARFIP1 / RFU, FAM179B / Fold change vs veh, FAM179B / RFU, BCL10 / Fold change vs veh, BCL10 / RFU, UHRF1BP1L / Fold change vs veh, UHRF1BP1L / RFU, BET1 / Fold change vs veh, BET1 / RFU, CNOT2 / Fold change vs veh, CNOT2 / RFU, ZNF268 / Fold change vs veh, ZNF268 / Fold change vs veh, ZNF507 / RFU, DGCR2 / Fold change vs veh, DGCR2 / RFU, WDSUB1 / Fold change vs veh, WDSUB1 / Fold change vs veh, HSP90B1 /// MIR3652 / RFU, ADSS / Fold change vs veh, ADSS / RFU, GK / Fold change vs veh, GK / RFU, ZNF148 / Fold change vs veh, ZNF148 / RFU, TAF9 / Fold change vs veh, TAF9 / RFU, SLC1A5 / Fold change vs veh, SLC1A5 / RFU, SLMO2 / Fold change vs veh, SLMO2 / RFU, ABCC4 / Fold change vs veh, ABCC4 / RFU, LOC101060439 /// RAP1B / Fold change vs veh, LOC101060439 /// RAP1B / RFU, RFX7 / Fold change vs veh, RFX7 / RFU, GTPBP10 / Fold change vs veh, GTPBP10 / RFU, CNEP1R1 / Fold change vs veh, CNEP1R1 / RFU, BIVM-ERCC5 /// ERCC5 / Fold change vs veh, BIVM-ERCC5 /// ERCC5 / RFU, ILF3 / Fold change vs veh, ILF3 / RFU 11762660_at / Fold change /veh 11762660_at / RFU VCAN (11757783_s_at) / Fold change /veh VCAN (11757783_s_at) / RFU DDX43 (11728927_at) / Fold change /veh DDX43 (11728927_at) / RFU KRT8 (11758188_x_at) / Fold change /veh KRT8 (11758188_x_at) / RFU NKD1 (11759106_at) / Fold change /veh NKD1 (11759106_at) / RFU SRD5A1 (11742802_a_at) / Fold change /veh SRD5A1 (11742802_a_at) / RFU TPSAB1 /// TPSB2 (11721975_s_at) / Fold change /veh TPSAB1 /// TPSB2 (11721975_s_at) / RFU GSTM3 (11746129_a_at) / Fold change /veh GSTM3 (11746129_a_at) / RFU IL23R (11737362_x_at) / Fold change /veh IL23R (11737362_x_at) / RFU TMEM51 (11727254_a_at) / Fold change /veh TMEM51 (11727254_a_at) / RFU PIWIL2 (11732686_x_at) / Fold change /veh PIWIL2 (11732686_x_at) / RFU ORM1 (11744905_x_at) / Fold change /veh ORM1 (11744905_x_at) / RFU CCDC152 (11743942_at) / Fold change /veh CCDC152 (11743942_at) / RFU ECM1 (11717891_a_at) / Fold change /veh ECM1 (11717891_a_at) / RFU IL23R (11748794_a_at) / Fold change /veh IL23R (11748794_a_at) / RFU TNFAIP8L3 (11732012_x_at) / Fold change /veh TNFAIP8L3 (11732012_x_at) / RFU MBOAT4 (11741988_at) / Fold change /veh MBOAT4 (11741988_at) / RFU 11764193_at / Fold change /veh 11764193_at / RFU TMEM53 (11763286_at) / Fold change /veh TMEM53 (11763286_at) / RFU MAGEB2 (11727129_at) / Fold change /veh MAGEB2 (11727129_at) / RFU TMEM200A (11744735_a_at) / Fold change /veh TMEM200A (11744735_a_at) / RFU CCDC152 (11751479_a_at) / Fold change /veh CCDC152 (11751479_a_at) / RFU FAM211A (11726209_a_at) / Fold change /veh FAM211A (11726209_a_at) / RFU RGS16 (11746705_a_at) / Fold change /veh RGS16 (11746705_a_at) / RFU VCAN (11755009_s_at) / Fold change /veh VCAN (11755009_s_at) / RFU RHOB (11743442_s_at) / Fold change /veh RHOB (11743442_s_at) / RFU RGS16 (11720943_a_at) / Fold change /veh RGS16 (11720943_a_at) / RFU RGS16 (11720944_at) / Fold change /veh RGS16 (11720944_at) / RFU, VPS4B / Fold change vs veh, VPS4B / RFU, CREB1 / Fold change vs veh, CREB1 / RFU, DNAJC13 / Fold change vs veh, DNAJC13 / RFU, GNAQ / Fold change vs veh, GNAQ / RFU, CDK5R1 / Fold change vs veh, CDK5R1 / RFU, ZRANB3 / Fold change vs veh, ZRANB3 / RFU, CUL4A / Fold change vs veh, CUL4A / RFU, CCNY / Fold change vs veh, CCNY / RFU, UFL1 / Fold change vs veh, UFL1 / RFU, COG3 / Fold change vs veh, COG3 / RFU, DIAPH2 / Fold change vs veh, DIAPH2 / RFU, SKA2 / Fold change vs veh, SKA2 / RFU, AFF3 / Fold change vs veh, AFF3 / RFU, LMF1 / Fold change vs veh, LMF1 / RFU, IPO11 / Fold change vs veh, IPO11 / RFU, DFFB / Fold change vs veh, DFFB / RFU, FOXP1 / Fold change vs veh, FOXP1 / RFU, CARD8 / Fold change vs veh, CARD8 / RFU, STRN3 / Fold change vs veh, STRN3 / RFU, ADK / Fold change vs veh, ADK / RFU, RASSF2 / Fold change vs veh, RASSF2 / RFU, WIPF1 / Fold change vs veh, WIPF1 / RFU, LARP1B / Fold change vs veh, LARP1B / RFU, RASA1 / Fold change vs veh, RASA1 / RFU, RB1 / Fold change vs veh, RB1 / RFU, PPFIA1 / Fold change vs veh, PPFIA1 / RFU, MAT2A / Fold change vs veh, MAT2A / RFU, CCT5 / Fold change vs veh, CCT5 / RFU, WDR92 / Fold change vs veh, WDR92 / RFU, CUX1 / Fold change vs veh, CUX1 / RFU, TTC7A / Fold change vs veh, TTC7A / RFU, TMEM135 / Fold change vs veh, TMEM135 / RFU, DEPTOR / Fold change vs veh, DEPTOR / RFU, CPM / Fold change vs veh, CPM / RFU, DNAJB6 / Fold change vs veh, DNAJB6 / RFU, CACNA2D3 / Fold change vs veh, CACNA2D3 / RFU, DTX4 / Fold change vs veh, DTX4 / RFU, TFCP2 / Fold change vs veh, TFCP2 / RFU, GMCL1 /// GMCL1P1 / Fold change vs veh, GMCL1 /// GMCL1P1 / RFU, AEBP2 / Fold change vs veh, AEBP2 / RFU, SNHG1 /// SNORD22 /// SNORD25 /// SNORD26 /// SNORD27 /// SNORD28 /// SNORD29 /// SNORD31 / Fold change vs veh, SNHG1 /// SNORD22 /// SNORD25 /// SNORD26 /// SNORD27 /// SNORD28 /// SNORD29 /// SNORD31 / Fold change (Aza/veh), C12orf56 (ProbeSet 11735607_a_at) / Fold change (ACY-1035/veh), C12orf56 (ProbeSet 11735607_a_at) / Fold change (Aza/veh), FGFR1OP (ProbeSet 11751329_s_at) / Fold change (ACY-1035/veh), FGFR1OP (ProbeSet 11751329_s_at) / Fold change (Aza/veh), VPS36 (ProbeSet 11739960_a_at) / Fold change (ACY-1035/veh), VPS36 (ProbeSet 11739960_a_at) / RFU SYPL1 (11715823_x_at) / Fold change /veh SYPL1 (11715823_x_at) / RFU IGFBP7 (11715501_s_at) / Fold change /veh IGFBP7 (11715501_s_at) / RFU REEP3 (11722064_at) / Fold change /veh REEP3 (11722064_at) / RFU IGLL1 (11728026_x_at) / Fold change /veh IGLL1 (11728026_x_at): dose or concentration left out as unconfirmed
Details: ProbeSet 11716865_a_at; LIST B

**Q.** `Nc1ncn([C@@H]2O[C@H](CO)[C@@H](O)[C@H]2O)c(=O)n1` [azacitidine] was tested. Which “RFU, SLC1A5” value did it give?
**A.** Its value is 258.33 RFU.

— publication PMC5218480 (PLoS ONE, 2017)
